{"source": "patent US8921108B2", "about": "“Differentiated human liver cell cultures and their use in bioartificial liver systems” (Academisch Ziekenhuis Bij de Universiteit van Amsterdam, priority 2009, dated 2014)", "assay_type_in_all_cases": "cell-based, human", "key": {"HepaRG cells [1]": {"system": "HepaRG cells", "assay": "15N urea enrichment (conversion of ammonia into urea) in HepaRG monolayer cultures", "conditions": "for 15N urea enrichment: 1 mM CG in preincubation and in testmedium (++)", "method": "For testing, the cells are seeded in 6-well and 24-well culture plates (Corning) in HepaRG media with different FBS batches or other differences in medium composition. After a 2 weeks proliferation phase, 2% of DMSO will be added to half of the cultures. After another 2 weeks of culturing, the confluence and morphology of the cultures will be assessed microscopically. Furthermore the +DMSO and −DMSO cell cultures in the 24-well plates will be tested for biochemical activity, i.e. urea production, ammonia elimination and protein content. The cultured cells are washed twice using phosphate buffered saline (PBS, NBPI International) and then incubated with test medium consisting of HepaRG culture medium supplemented with 1.5 mM ^15NH4Cl (Sigma), 2.75 mM D-galactose (Sigma), 2 mM ornithine hydrochloride (Sigma) and 2 mM L-lactate (Sigma). Medium samples are taken after 1 hr from the culture wells, as a reference, and after 24 hours. At the end of the test period the cells are washed three times using PBS and stored at −20° C. for protein determination. From the changes in concentration at t=1 hr and 24 hr of urea and ammonia an activity per hour and per mg protein/well is calculated. Quality of the cell-loaded bioreactors, measured by hepatocyte function at the start of the treatment, will be compared with values of primary hepatocytes that have been tested extensively in vitro in the past.\n^15N Urea: Single and Double labelled urea is measured in the test medium samples using mass-spectrometry.\n(§1) The HepaRG cells are cultured as indicated above in 24 well in presence or absence of 1 mM CG during the last 5 days. Next the cells are tested as indicated above in presence or absence of CG during 24 hours. To determine the conversion of ammonia into urea, the ^15N urea enrichment (single and double labeled) is measured in the test samples using mass-spectrometry. Similarly, HepG2 and cBAL111 cells were tested for their response to CG."}, "HepaRG cells [2]": {"system": "HepaRG cells", "assay": "RT-PCR mRNA levels of hepatic genes in HepaRG cells from AMC-BAL bioreactor"}, "HepaRG cells [3]": {"system": "HepaRG cells", "assay": "Urea production of HepaRG monolayer cultures", "method": "For testing, the cells are seeded in 6-well and 24-well culture plates (Corning) in HepaRG media with different FBS batches or other differences in medium composition. After a 2 weeks proliferation phase, 2% of DMSO will be added to half of the cultures. After another 2 weeks of culturing, the confluence and morphology of the cultures will be assessed microscopically. Furthermore the +DMSO and −DMSO cell cultures in the 24-well plates will be tested for biochemical activity, i.e. urea production, ammonia elimination and protein content. […] Medium samples are taken after 1 hr from the culture wells, as a reference, and after 24 hours. At the end of the test period the cells are washed three times using PBS and stored at −20° C. for protein determination. From the changes in concentration at t=1 hr and 24 hr of urea and ammonia an activity per hour and per mg protein/well is calculated.\nUrea: Urea concentrations of test medium samples are determined using the blood urea nitrogen test of Sigma Chemical Co according to the instructions of the manufacturer.\nas §1"}, "HepaRG cells [4]": {"system": "HepaRG cells", "assay": "AMC-BAL bioreactor functionality test of HepaRG cells", "method": "One liter of HepaRG medium containing 75 ml of viable HepaRG cells is injected under sterile conditions into an AMC-BAL bioreactor (cf. Flendrig et al.^15) through three loading ports. […] To ensure optimal cell attachment and an even cell distribution, bioreactors are rotated 340° (back and forth) along the longitudinal axis at 1 revolution/min. After this attachment period, dead and unattached cells are removed by flushing 500 mL of fresh culture medium through the bioreactor at 150 mL/min. From then on bioreactors are perfused with 1.5 L recirculating culture medium at 150 mL/min. The medium is refreshed every three days. The bioreactors are cultured in HepaRG medium for 14 days. […] At least one week prior to clinical application, 1 mM CG (Sigma) is added to the media to enhance the urea cycle. The bioreactors are tested every culture week and prior to clinical application for sterility and function. Laboratory model AMC-BAL bioreactors, e.g. of a different scale, are produced in essentially the same way as described above. These laboratory model bioreactors are used e.g. for clinical testing in animal models, such as rats with acute liver failure.\nThirdly, the culture medium is replaced by 1500 ml test medium. […] At first 700 ml test medium is flushed through the bioreactor followed by recirculation of 800 ml test medium during 24 hours. […] From the changes in concentration an activity per hour and per billion cells seeded is calculated."}, "[5]": {"conditions": "Bioreactor −DMSO +CG versus Monolayer + DMSO − CG"}, "[6]": {"conditions": "Bioreactor −DMSO +CG versus Monolayer − DMSO − CG"}, "[7]": {"conditions": "HepaRG in AMC-BAL bioreactor, 13 days, −DMSO, 1 mM CG"}}, "note": "Marks after values point to notes of the source that are not given here.", "data": [{"smiles": "NC(=O)N[C@@H](CCC(=O)O)C(=O)O", "note": "[CG, carbamoyl glutamate]", "values": [{"measurement": "15N urea enrichment", "setting": "HepaRG cells [1]; HepaRG + DMSO", "value": "7.8 ± 2.4 % of total urea produced"}, {"measurement": "15N urea enrichment", "setting": "HepaRG cells [1]; HepaRG − DMSO", "value": "24.4 ± 4.1 % of total urea produced"}, {"measurement": "increase of % of urea of the total urea produced from ammonia", "setting": "HepaRG cells [1]; HepaRG −DMSO cells, CG treatment", "value": "four-fold"}, {"measurement": "% improvement by bioreactor: Alb mRNA level", "setting": "HepaRG cells [2]; [5]", "value": "313* %"}, {"measurement": "% improvement by bioreactor: ArgI mRNA level", "setting": "HepaRG cells [2]; [5]", "value": "460* %"}, {"measurement": "% improvement by bioreactor: ArgII mRNA level", "setting": "HepaRG cells [2]; [5]", "value": 42, "unit": "%"}, {"measurement": "% improvement by bioreactor: CPS mRNA level", "setting": "HepaRG cells [2]; [5]", "value": "4000* %"}, {"measurement": "% improvement by bioreactor: CYP2B6 mRNA level", "setting": "HepaRG cells [2]; [5]", "value": 49, "unit": "%"}, {"measurement": "% improvement by bioreactor: CYP3A4 mRNA level", "setting": "HepaRG cells [2]; [5]", "value": 148, "unit": "%"}, {"measurement": "% improvement by bioreactor: GS mRNA level", "setting": "HepaRG cells [2]; [5]", "value": 714, "unit": "%"}, {"measurement": "% improvement by bioreactor: HNF4 mRNA level", "setting": "HepaRG cells [2]; [5]", "value": "198* %"}, {"measurement": "% improvement by bioreactor: PXR mRNA level", "setting": "HepaRG cells [2]; [5]", "value": 633, "unit": "%"}, {"measurement": "% improvement by bioreactor: Alb mRNA level", "setting": "HepaRG cells [2]; [6]", "value": 109, "unit": "%"}, {"measurement": "% improvement by bioreactor: ArgI mRNA level", "setting": "HepaRG cells [2]; [6]", "value": 155, "unit": "%"}, {"measurement": "% improvement by bioreactor: ArgII mRNA level", "setting": "HepaRG cells [2]; [6]", "value": 54, "unit": "%"}, {"measurement": "% improvement by bioreactor: CPS mRNA level", "setting": "HepaRG cells [2]; [6]", "value": 145, "unit": "%"}, {"measurement": "% improvement by bioreactor: CYP2B6 mRNA level", "setting": "HepaRG cells [2]; [6]", "value": "863* %"}, {"measurement": "% improvement by bioreactor: CYP3A4 mRNA level", "setting": "HepaRG cells [2]; [6]", "value": "1063* %"}, {"measurement": "% improvement by bioreactor: GS mRNA level", "setting": "HepaRG cells [2]; [6]", "value": "300* %"}, {"measurement": "% improvement by bioreactor: HNF4 mRNA level", "setting": "HepaRG cells [2]; [6]", "value": "187* %"}, {"measurement": "% improvement by bioreactor: PXR mRNA level", "setting": "HepaRG cells [2]; [6]", "value": 437, "unit": "%"}, {"measurement": "Alb mRNA level", "setting": "HepaRG cells [2]; [7]", "value": "72.1 ± 26.0 % of in vivo"}, {"measurement": "ArgI mRNA level", "setting": "HepaRG cells [2]; [7]", "value": "22.9 ± 10.4 % of in vivo"}, {"measurement": "ArgII mRNA level", "setting": "HepaRG cells [2]; [7]", "value": "305 ± 143 % of in vivo"}, {"measurement": "CPS mRNA level", "setting": "HepaRG cells [2]; [7]", "value": "44.1 ± 32.2 % of in vivo"}, {"measurement": "CYP2B6 mRNA level", "setting": "HepaRG cells [2]; [7]", "value": "30.2 ± 15.9 % of in vivo"}, {"measurement": "CYP3A4 mRNA level", "setting": "HepaRG cells [2]; [7]", "value": "102 ± 49.4 % of in vivo"}, {"measurement": "GS mRNA level", "setting": "HepaRG cells [2]; [7]", "value": "643 ± 395 % of in vivo"}, {"measurement": "HNF4 mRNA level", "setting": "HepaRG cells [2]; [7]", "value": "386 ± 216 % of in vivo"}, {"measurement": "PXR mRNA level", "setting": "HepaRG cells [2]; [7]", "value": "82.5 ± 68.9 % of in vivo"}, {"measurement": "instantaneous effect of CG on urea production", "setting": "HepaRG cells [3]", "value": "negligible"}, {"measurement": "Urea production", "setting": "HepaRG cells [3]; HepaRG + DMSO, 1 mM CG in preincubation and in testmedium (++)", "value": "13.7 ± 4.4", "unit": "nmol/h/mg protein"}, {"measurement": "Urea production", "setting": "HepaRG cells [3]; HepaRG + DMSO, 1 mM CG only during preincubation (+−)", "value": "11.0 ± 5.3", "unit": "nmol/h/mg protein"}, {"measurement": "Urea production", "setting": "HepaRG cells [3]; HepaRG + DMSO, 1 mM CG only during test (−+)", "value": "4.9 ± 4.2", "unit": "nmol/h/mg protein"}, {"measurement": "Urea production", "setting": "HepaRG cells [3]; HepaRG − DMSO, 1 mM CG in preincubation and in testmedium (++)", "value": "9.5 ± 4.2", "unit": "nmol/h/mg protein"}, {"measurement": "Urea production", "setting": "HepaRG cells [3]; HepaRG − DMSO, 1 mM CG only during preincubation (+−)", "value": "9.6 ± 3.3", "unit": "nmol/h/mg protein"}, {"measurement": "Urea production", "setting": "HepaRG cells [3]; HepaRG − DMSO, 1 mM CG only during test (−+)", "value": "5.9 ± 2.4", "unit": "nmol/h/mg protein"}, {"measurement": "increase of urea production by CG treatment", "setting": "HepaRG cells [3]; all cell lines (HepG2, cBAL111, HepaRG), 1 mM CG", "value": "more than two-fold"}, {"measurement": "time increased urea production is maintained upon withdrawal of the CG", "setting": "HepaRG cells [3]; cells exposed to carbamoyl glutamate for at least 5 days", "value": "at least 24 hrs"}, {"measurement": "% improvement by bioreactor: 15N urea enrichment", "setting": "HepaRG cells [4]; [5]", "value": "157* %"}, {"measurement": "% improvement by bioreactor: Ammonia elimination", "setting": "HepaRG cells [4]; [5]", "value": 134, "unit": "%"}, {"measurement": "% improvement by bioreactor: ApoA1 synthesis", "setting": "HepaRG cells [4]; [5]", "value": 113, "unit": "%"}, {"measurement": "% improvement by bioreactor: Lactate consumption", "setting": "HepaRG cells [4]; [5]", "value": "conversion*"}, {"measurement": "% improvement by bioreactor: Urea production", "setting": "HepaRG cells [4]; [5]", "value": "187* %"}, {"measurement": "% improvement by bioreactor: 15N urea enrichment", "setting": "HepaRG cells [4]; [6]", "value": "418* %"}, {"measurement": "% improvement by bioreactor: Ammonia elimination", "setting": "HepaRG cells [4]; [6]", "value": "199* %"}, {"measurement": "% improvement by bioreactor: ApoA1 synthesis", "setting": "HepaRG cells [4]; [6]", "value": 154, "unit": "%"}, {"measurement": "% improvement by bioreactor: Lactate consumption", "setting": "HepaRG cells [4]; [6]", "value": "conversion*"}, {"measurement": "% improvement by bioreactor: Urea production", "setting": "HepaRG cells [4]; [6]", "value": "262* %"}, {"measurement": "15N urea enrichment", "setting": "HepaRG cells [4]; [7]", "value": "25.1 ± 3.7 % of total urea"}, {"measurement": "Ammonia elimination", "setting": "HepaRG cells [4]; [7]", "value": "143 ± 105", "unit": "nmol/h/mg protein"}, {"measurement": "ApoA1 synthesis", "setting": "HepaRG cells [4]; [7]", "value": "1.2 ± 0.9", "unit": "ug/h/mg protein"}, {"measurement": "Lactate consumption", "setting": "HepaRG cells [4]; [7]", "value": "42.1 ± 14.7", "unit": "nmol/h/mg protein"}, {"measurement": "Urea production", "setting": "HepaRG cells [4]; [7]", "value": "13.1 ± 1.2", "unit": "nmol/h/mg protein"}]}]}
